Source: patent US11517588B2, “Nanoparticle, preparation process and uses thereof” (National Tsing Hua University, priority 2019, dated 2022)

Tests used:
[1] = test system: PD-L1; assay: PD-L1 mRNA and protein expression in HCC cells in vitro; assay type: cell-based, murine and human; settings: dose-dependent manner
Description: The procedure of Western blot analysis was as follows. Cells or tissue were lysed in RIPA lysis buffer. Cell lysates were separated on a 10% acrylamide gel and transferred to a PVDF membrane. Membranes were blocked for 1 h in 5% skim milk and then incubated overnight with polyclonal antibodies against PD-L1 and R-actin (clone 122M4782, Cell Signaling, Danvers, Mass.).
FIG. 6F is a data diagram showing reprogramming of tumor microenvironment by NanoNO. FIG. 6G is a Western blot staining diagram showing reprogramming of tumor microenvironment by NanoNO. PD-L1 mRNA and protein expression in HCA-1 cells was analysed by qRT-PCR (n=3 biologically independent samples) (FIG. 6F) and Western blot analysis (FIG. 6G) After treatment with free-form DNIC in vitro. The experiments were repeated twice independently.

[2] = mouse, in vivo, iv
Description: The pharmacokinetics and biodistribution of NanoNO in orthotopic murine HCC models generated using HCA-1 were evaluated.
The procedure of pharmacokinetic and tissue distribution study was as follows. C3H/HeNCrNarl male mice with orthotopic implants of HCA-1 cells were injected intravenously with free DNIC (10 mg/kg) or NanoNO (7.5 mg/kg). At different time points, 200 μL of blood was collected from the orbital sinus and mixed with 50 μL of 1000 U/mL heparin (Sigma, USA). For evaluation of tissue distribution, four hours after administration, the mice were sacrificed. The tissues were collected and homogenized in lysis buffer (10 mM Tris-HCl, 1% Triton X-100, 0.1% SDS, 0.1% SDC and 140 mM NaCl). The tissue lysates were kept on ice for 30 min and centrifuged at 25,001 rcf at 4° C. for 30 min, and the supernatants were collected. The DNIC signal was measured by electron paramagnetic resonance (EPR plus, Bruker, Germany). HSCH2CH2OH (1 mM) was added to the serum or tissue lysates to transform all the DNICs into the EPR-active form for analysis. The DNIC concentration was calculated according to a standard curve obtained by the amounts of DNIC or NanoNO.
Non-compartmental analysis was employed for the pharmacokinetic parameter analysis. AUC, area under the curve; CL, clearance; h, hour; t1/2, half-life; Vss, steady state volume of distribution.

[3] = test system: orthotopic HCA-1 HCC tumors; assay: Tissue distribution of DNIC and NO release in tumors; set-up: species or system C3H mice; settings: mouse, in vivo, iv
Description: ID/g, injected dose per gram. *P=0.0159 compared to Free DNIC. […] Next, NBD-labeled DNIC was used to track the intracellular delivery of free DNIC and NanoNO, and the NO-specific fluorescence probe DAR-1 was used to assess the penetration of NO released from free DNIC and NanoNO in HCC. In FIG. 4F, microphotographs of HCC tumors show DNIC uptake (green) and NO release (red) four hours after intravenous administration of NBD-DNIC loaded in NanoNO or free-form NBD-DNIC (7.5 mg/kg) to mice. 4',6-diamidino-2-phenylindole (DAPI, a fluorescent dye capable of binding strongly to DNA), blue. Scale bar, 50 μm. The experiments were repeated twice independently. […] NO release (red) was detected using DAR-1 in tumors four hours after intravenous administration of NanoNO or free-form DNIC (10 mg/kg) in mice. The arrowheads indicate perivascular NO gradients. Scale bar, 20 μm. The release of NO was imaged and quantified with a Zeiss LSM 780 confocal microscope (n=7 section images from four mice). The experiments were repeated twice independently. The procedure of distribution of NO in the tumor area was as follows. […] Four hours after administration, mice were sacrificed. Tumor tissues were embedded in Tissue-Tek (OCT compound) and immediately frozen in liquid nitrogen. Tumor tissue was sectioned (10 μm thick) onto slides. […]

[4] = test system: Macrophage; assay: Macrophage polarization after treatment of DNIC in vitro (qPCR); assay type: cell-based, human
Text: The murine hepatocellular carcinoma (HCC) cell line HCA-1 and the human HCC cell lines JHH-7, Hep3B and human lung fibroblasts (HLF) were provided by Dr. Dan Duda (Massachusetts General Hospital, Boston). The human HCC cell line Mahlavu was provided by Dr. Han-Chung Wu (Academia Sinica, Taiwan). The human monocyte cell line THP-1 (ATCC® TIB-202™) was purchased from ATCC. HUVECs (BCRC H-UV001) were obtained from the Bioresource Collection and Research Center, Food Industry Research and Development Institute (Hsinchu, Taiwan). Cell lines were authenticated and tested for mycoplasma. HCA-1 and Mahlavu cells were cultured in high-glucose Dulbecco's modified Eagle's medium (DMEM); JHH-7 and HLF cells were cultured in DMEM/F12 medium; Hep3B cells were cultured in Minimum Essential Medium Alpha (MEMα) (Sigma-Aldrich, St. Louis, Mo.); THP-1 cells were maintained in RPMI-1640 (Corning, N.Y.). All media were supplemented with 10% fetal bovine serum (FBS) and 1% antibiotics (penicillin and streptomycin, HyClone, Logan, Utah). The HUVECs were cultured in Medium 199 (Sigma-Aldrich, St. Louis, Mo.) containing 20% FBS, ECGS (30 μg/mL), heparin (25 U/mL) and L-glutamine (2 mM). THP-1 cells were differentiated into macrophages by 72 h incubation with 20 ng/mL phorbol 12-myristate 13-acetate (PMA, Sigma-Aldrich, St. Louis, Mo.).
(§1) The procedure of reverse transcription quantitative real time PCR was as follows. Total RNA was extracted from HUVECs or flow-sorted tumor-associated macrophages using the RNeasy Mini Kit (Qiagen, Calif., USA). cDNAs were synthesized using the High-Capicity cDNA Reverse Transcription Kit (Applied Biosystems, Calif., USA). Primers specific for Arignase-1, CCL17, CCL22, IL10, MRC1, CXCL9, IL-1β, TNF-α, CXCL-11, NOS2, NOS3, Snail, Slug, Zeb1, Zeb2, Trim28, Fibronectin, Vimentin, E-cadherin, PD-L1, S1PR1, ANGPT1, PDGF-B, VEGFA, ANGPT2, EGF, IL-6, PPARγ, TGFβ, GAPDH and β-actin were used (Table 2), and relative gene expression was determined using Real-Time SYBR Green PCR Master Mix (Applied Biosystems, Calif., USA) on a QPCR System. The comparative threshold cycle method was used to calculate fold change in gene expression, which was normalized to β-actin.

[5] = test system: SP1; assay: SP1 luciferase reporter; assay type: cell-based, murine; settings: free-form DNIC 0.5 μM, 24 h, HCA-1 cells
Description: The procedure of DNIC triggered activation of SP1 in HCA-1 HCC cells was as follows. HCA-1 cells expressing SP1 reporter (Qiagen, Germany) were established by transfection using Lipofectamine® 2000 (Thermo Fisher Scientific, USA). The cells were then treated with free-form DNIC. After 24 h incubated, the cells were lysed and luciferase signal was measured by microplate reader (Spark 10M, Tecan, Germany).
Data are pooled from two independent experiments. […] Analysis was performed using two-tailed Mann-Whitney U test.

[6] = Cumulative release of NO, DAR-1 fluorescence probe; assay type: physicochemical; settings: PBS pH 7.4, 37° C.
Description: The cumulative release of NO from NanoNO over time was assessed using an NO-specific 4,5-diamino-N,N,N′,N′-tetraethylrhodamine (DAR-1) fluorescence probe.
The release profile of NO from free DNIC or NanoNO was investigated at pH 7.4 at 37° C. Briefly, free DNIC and NanoNO were suspended with PBS buffer. DAR-1 at a final concentration of 20 μM was added to the solution and then incubated at 37° C. on a 200 rpm orbital shaker. At different time points, the solution was harvested, and the fluorescence intensity (excitation at 560 nm, emission at 595 nm) was measured using a microplate reader (Spark 10M, Tecan, Germany).
FIG. 3 is a data diagram of the effect of NanoNO on the cumulative release of nitric oxide. NO release from free-form DNIC and NanoNO under physiological conditions (pH of 7.4). Free-form DNIC and NanoNO were incubated in PBS buffer at pH 7.4, and the release of NO was measured as the fluorescence intensity (excitation at 560 nm and emission at 595 nm) of the NO-specific probe DAR-1. The results are expressed as a fold change compared to time 0 (free DNIC, n=5; NanoNO; n=4 independent samples). *P=0.0159 compared to free DNIC. FL: fluorescence intensity.

[7] = pH 7.4
Description: Free DNIC and NanoNO were suspended with PBS buffer or acetic buffer (pH 4.0 or 5.5) and then incubated at 37° C. in a 200 rpm Orbital Shaker. At different time points, the solution was harvested, dissolved in DMSO and analysed by a UV spectrophotometer at 360 nm.
The kinetic profile for the decomposition of DNIC and the concomitant release of NO from NanoNO were evaluated under physiological and acidic pH conditions at 37° C. […] Free-form DNIC and NanoNO were incubated in a PBS buffer or acetic buffer at a pH of 4.0-7.4, and DNIC destruction was measured using a UV spectrophotometer at 360 nm (n=5 independent samples). The results are expressed as percentage of the initial DNIC. **P=0.0094 and ***P=0.0004 compared to NanoNO at a pH of 7.4.
Free-form DNIC and NanoNO were incubated in PBS containing 10% fetal bovine serum at 37° C. DNIC destruction was measured using a UV spectrophotometer at 360 nm. The results are expressed as the percentage of the initial DNIC (n=3 samples). All data are shown as the mean value± the s.e.m.

[8] = test system: HCA-1 cells; assay: Invasion and wound healing assays; assay type: cell-based, murine; settings: 72 h after treatment
Description: The procedure of transwell invasion assay was as follows. Cell invasion was examined using a QCM ECMatrix 24-well Cell Invasion Assay (EMD Millipore, USA). HCA-1 cells were seeded in the top chamber without serum. DMEM-H containing 10% FBS was added to the lower chamber. Following incubation for 72 h, the cells on the lower surface were fixed with 4% paraformaldehyde (PFA, in PBS). The chambers were rinsed in PBS and stained with 1% crystal violet (in 90% ethanol) for 30 min. For each experimental condition, 10 image fields were photographed by microscopy (IX83, Olympus, Japan) and quantified.
FIGS. 7A and 7B show free-form DNIC modulates the TME in metastatic lesions and suppresses metastatic progression of HCC. 7A-7B, Invasion (7A) and wound healing assays (7B) of HCA-1 cells were performed 72 h after treatment with free DNIC at different doses. The experiments were repeated twice independently.

[9] = test system: HUVECs; assay: Expression of pro-angiogenic and vessel stabilizing factors, RT-qPCR; assay type: cell-based, human; settings: DNIC 1 μM, 24 h
Text: as §1
NO acts as a crucial modulator in regulating angiogenesis and maintaining the vasculature function in TME. […]
FIG. 5A is a data diagram of normalized tumor blood vessels in HCC by low-dose NanoNO. Expression of the pro-angiogenic and vessel stabilizing factors in HUVECs 24 h after treatment with DNIC (1 μM) measured by RT-qPCR. The results are expressed as the fold change relative to the untreated control group (n=9 biologically independent samples). […]

[10] = test system: HCA-1 cells; assay: EMT phenotype under hypoxic conditions, qRT-PCR; assay type: cell-based, murine; settings: hypoxic conditions (1% oxygen), 24 h, dose-dependent manner
Description: The mRNA level was determined by qRT-PCR 24 h after treatment with free DNIC at different doses (control and hypoxia, n=3; 0.5 and 1 μM DNIC, n=5; 5 μM DNIC, n=6 biologically independent samples).

O=[N][Fe]1([N]=O)[S](CCO)[Fe]([N]=O)([N]=O)[S]1CCO [Free DNIC, Fe(μ-SCH2CH2OH)2(NO)4]
PD-L1 expression in murine and human HCC cells in vitro [1]: significantly reduced PD-L1 expression | CL [2]: 0.46 mL/min/kg | Vss [2]: 0.0327 L/kg | t1/2 [2]: 1.27 h | accumulation of DNIC in HCC tumors [3]: poorly delivered and accumulated in the tumor | macrophage polarization in vitro [4]: did not directly affect macrophage polarization | Gene expression Arg-1 (M2 type) ([4]; DNIC 0.5 μM): 1.08 ± 0.26 | Gene expression CCL-17 (M2 type) ([4]; DNIC 0.5 μM): 1.06 ± 0.13 | Gene expression CCL-22 (M2 type) ([4]; DNIC 0.5 μM): 0.96 ± 0.11 | Gene expression CXCL-9 (M1 type) ([4]; DNIC 0.5 μM): 1.22 ± 0.17 | Gene expression CXCL-11 (M1 type) ([4]; DNIC 0.5 μM): 2.02 ± 0.79 | Gene expression IL-1b (M1 type) ([4]; DNIC 0.5 μM): 1.13 ± 0.07 | Gene expression IL-6 (M1 type) ([4]; DNIC 0.5 μM): 1.16 ± 0.03 | Gene expression MRC1 (M2 type) ([4]; DNIC 0.5 μM): 1.00 ± 0.17 | Gene expression PPARγ (M2 type) ([4]; DNIC 0.5 μM): 0.92 ± 0.05 | Gene expression TGF-β (M2 type) ([4]; DNIC 0.5 μM): 1.11 ± 0.06 | Gene expression TNF-α (M1 type) ([4]; DNIC 0.5 μM): 0.95 ± 0.08 | Gene expression iNOS (M1 type) ([4]; DNIC 0.5 μM): 1.10 ± 0.35 | Gene expression Arg-1 (M2 type) ([4]; DNIC 1 μM): 1.27 ± 0.28 | Gene expression CCL-17 (M2 type) ([4]; DNIC 1 μM): 1.19 ± 0.27 | Gene expression CCL-22 (M2 type) ([4]; DNIC 1 μM): 1.07 ± 0.22 | Gene expression CXCL-9 (M1 type) ([4]; DNIC 1 μM): 1.22 ± 0.53 | Gene expression CXCL-11 (M1 type) ([4]; DNIC 1 μM): 1.85 ± 0.72 | Gene expression IL-1b (M1 type) ([4]; DNIC 1 μM): 1.21 ± 0.04 | Gene expression IL-6 (M1 type) ([4]; DNIC 1 μM): 1.27 ± 0.08 | Gene expression IL-10 (M2 type) ([4]; DNIC 1 μM): 1.22 ± 0.14 | Gene expression MRC1 (M2 type) ([4]; DNIC 1 μM): 1.19 ± 0.16 | Gene expression PPARγ (M2 type) ([4]; DNIC 1 μM): 0.91 ± 0.13 | Gene expression TGF-β (M2 type) ([4]; DNIC 1 μM): 0.95 ± 0.03 | Gene expression TNF-α (M1 type) ([4]; DNIC 1 μM): 0.94 ± 0.11 | Gene expression iNOS (M1 type) ([4]; DNIC 1 μM): 0.93 ± 0.47 | SP-1 luciferase activity [5]: significantly decreased | in vitro release of NO [6]: proceeded at a rapid rate during the first two hours | half-life of DNIC (DNIC destruction) [7]: 3.9 ± 1.5 h | migration and invasion of HCA-1 cells [8]: significantly inhibited the migration and invasion | expression of pro-angiogenic genes (VEGF, ANGPT2, and EGF) [9]: downregulated | expression of vessel maturation-related genes (S1PR1 and ANGPT1) [9]: significantly upregulated | EMT markers and E-cadherin expression [10]: prevented the increase in epithelial-mesenchymal transition (EMT) markers
